# Test results from ChEMBL document CHEMBL1201862, “PubChem BioAssay data set” (2004).
#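 Exposure lasted 48 hours, with cells grown in 96-well plates and compounds tested at five concentrations. The concentration for 50% growth inhibition is given as GI50.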 Calls of active or inactive are those of the source. No stated cut-off is given here; in the data, active = GI50 up to about 1.1 µM and inactive = higher.
# Columns and labels:
# Experiment in all cases: NCI anticancer screen, dose series, 48 h
# 786-0 = test system: 786-0
# A498 = test system: A498
# A549 = test system: A549
# ACHN = test system: ACHN
# BT-549 = test system: BT-549
# CAKI-1 = test system: CAKI-1
# CCRF-CEM = test system: CCRF-CEM
# COLO 205 = test system: COLO 205
# DU-145 = test system: DU-145
# EKVX = test system: EKVX
# HCC 2998 = test system: HCC 2998
# HCT-116 = test system: HCT-116
# HCT-15 = test system: HCT-15
# HL-60 = test system: HL-60
# HOP-62 = test system: HOP-62
# HOP-92 = test system: HOP-92
# HT-29 = test system: HT-29
# Hs-578T = test system: Hs-578T
# IGROV-1 = test system: IGROV-1
# K562 = test system: K562
# KM12 = test system: KM12
# LOX IMVI = test system: LOX IMVI
# M14 = test system: M14
# MCF7 = test system: MCF7
# MDA-MB-435 = test system: MDA-MB-435
# MDA-N = test system: MDA-N
# MOLT-4 = test system: MOLT-4
# Malme-3M = test system: Malme-3M
# NCI-H226 = test system: NCI-H226
# NCI-H23 = test system: NCI-H23
# NCI-H460 = test system: NCI-H460
# NCI-H522 = test system: NCI-H522
# NCI/ADR-RES = test system: NCI/ADR-RES
# OVCAR-3 = test system: OVCAR-3
# OVCAR-4 = test system: OVCAR-4
# OVCAR-5 = test system: OVCAR-5
# OVCAR-8 = test system: OVCAR-8
# PC-3 = test system: PC-3
# RPMI-8226 = test system: RPMI-8226
# SF-268 = test system: SF-268
# SF-295 = test system: SF-295
# SF-539 = test system: SF-539
# SK-MEL-28 = test system: SK-MEL-28
# SK-MEL-2 = test system: SK-MEL-2
# SK-MEL-5 = test system: SK-MEL-5
# SK-OV-3 = test system: SK-OV-3
# SN12C = test system: SN12C
# SNB-19 = test system: SNB-19
# SNB-75 = test system: SNB-75
# SR = test system: SR
# SW-620 = test system: SW-620
# T47D = test system: T47D
# TK-10 = test system: TK-10
# U-251 = test system: U-251
# UACC-257 = test system: UACC-257
# UACC-62 = test system: UACC-62
# UO-31 = test system: UO-31
compound,measurement,setting,value
COc1ccc(C2c3cc4c(cc3C(O)C3CCC(=O)N23)OCO4)cc1 (configuration not stated),GI50,786-0,> 100 µM (inactive)
same,GI50,A498,> 100 µM (inactive)
same,GI50,A549,> 100 µM (inactive)
same,GI50,ACHN,> 100 µM (inactive)
same,GI50,BT-549,96.4 µM (inactive)
same,GI50,CAKI-1,> 100 µM (inactive)
same,GI50,CCRF-CEM,> 100 µM (inactive)
same,GI50,COLO 205,> 100 µM (inactive)
same,GI50,DU-145,> 100 µM (inactive)
same,GI50,EKVX,> 100 µM (inactive)
same,GI50,HCC 2998,> 100 µM (inactive)
same,GI50,HCT-116,> 100 µM (inactive)
same,GI50,HCT-15,> 100 µM
same,GI50,HL-60,> 100 µM (inactive)
same,GI50,HOP-62,> 100 µM (inactive)
same,GI50,HOP-92,> 100 µM (inactive)
same,GI50,HT-29,> 100 µM (inactive)
same,GI50,Hs-578T,> 100 µM (inactive)
same,GI50,IGROV-1,> 100 µM (inactive)
same,GI50,K562,> 100 µM (inactive)
same,GI50,KM12,> 100 µM (inactive)
same,GI50,LOX IMVI,> 100 µM (inactive)
same,GI50,M14,> 100 µM (inactive)
same,GI50,MCF7,> 100 µM (inactive)
same,GI50,MDA-MB-435,> 100 µM (inactive)
same,GI50,MDA-N,> 100 µM (inactive)
same,GI50,MOLT-4,> 100 µM (inactive)
same,GI50,Malme-3M,> 100 µM (inactive)
same,GI50,NCI-H226,> 100 µM (inactive)
same,GI50,NCI-H23,> 100 µM (inactive)
same,GI50,NCI-H460,> 100 µM (inactive)
same,GI50,NCI-H522,> 100 µM (inactive)
same,GI50,NCI/ADR-RES,> 100 µM (inactive)
same,GI50,OVCAR-3,> 100 µM (inactive)
same,GI50,OVCAR-4,> 100 µM (inactive)
same,GI50,OVCAR-5,> 100 µM (inactive)
same,GI50,OVCAR-8,> 100 µM (inactive)
same,GI50,PC-3,> 100 µM (inactive)
same,GI50,RPMI-8226,> 100 µM (inactive)
same,GI50,SF-268,> 100 µM (inactive)
same,GI50,SF-295,> 100 µM (inactive)
same,GI50,SF-539,> 100 µM (inactive)
same,GI50,SK-MEL-28,> 100 µM (inactive)
same,GI50,SK-MEL-2,> 100 µM (inactive)
same,GI50,SK-MEL-5,> 100 µM (inactive)
same,GI50,SK-OV-3,> 100 µM (inactive)
same,GI50,SN12C,> 100 µM (inactive)
same,GI50,SNB-19,> 100 µM (inactive)
same,GI50,SNB-75,82.2 µM (inactive)
same,GI50,SR,> 100 µM (inactive)
same,GI50,SW-620,> 100 µM (inactive)
same,GI50,T47D,> 100 µM (inactive)
same,GI50,TK-10,> 100 µM (inactive)
same,GI50,U-251,> 100 µM (inactive)
same,GI50,UACC-257,> 100 µM (inactive)
same,GI50,UACC-62,> 100 µM (inactive)
same,GI50,UO-31,> 100 µM (inactive)
